Columns and labels:
[1] = tested on: K. pneumoniae ATCC 10031 (SEN) and K. pneumoniae ATCC 700603 (MDR); experiment: Adaptive laboratory evolution (ALE), relative MIC of evolved lines; assay type: cell-based, Klebsiella pneumoniae
Description: Using the same set of bacterial strains, we initiated adaptive laboratory evolution with the aim to maximize the level of antibiotic resistance in the populations achieved during a longer, but fixed time period.
An established protocol for adaptive laboratory evolution[46],[73] was followed to propagate populations with the highest resistance levels. Starting with an antibiotic concentration that caused approximately 50% growth inhibition, ten parallel populations for each antibiotic-ancestor strain combination were grown for 72 hours at 37 °C with continuous shaking (300 RPM). MHB broth medium was used unless stated otherwise. After each incubation, 20 µl of each culture was transferred to four new wells containing fresh medium with increasing antibiotic concentrations (0.5×, 1×, 1.5×, and 2.5× the previous concentration) in a chessboard layout to monitor potential cross-contamination. Growth was monitored by measuring OD600 using a Biotek Synergy 2 microplate reader, and only populations grown in the highest drug concentration with an OD600 > 0.2 were transferred further.
A robotic liquid handling system was used to automatically prepare a 11 to 16-step serial dilution in 384-well microtiter plates (Greiner). A final concentration of 5 × 10^5 bacterial cells per mL were inoculated into each well containing 60 µL MHB medium. Bacterial cultures were incubated at 37 °C with continuous shaking (Infors shaker, 900 rpm with 3 mm throw) for 18 hours (2 replicates from each). Cell growth was monitored by measuring the optical density (OD600 values, using Biotek Synergy microplate reader). MIC was defined as the antibiotic concentration of complete growth inhibition (i.e., OD600 < 0.05). Relative MIC was calculated as follows:1 relativeMIC=MICevolved/MICancestor […]
Supplementary Figure 4. Resistance levels following adaptive laboratory evolution across bacterial strains. The level of resistance was measured as the fold change in relative MIC between evolved and ancestral strains after ~60 days of adaptive laboratory evolution. Data are grouped by bacterial strain (A. baumannii (AB), E. coli (EC), K. pneumoniae (KP), and P. aeruginosa (PA)) and categorized as either multidrug-resistant (MDR) or sensitive (SEN). Each data point represents a laboratory evolved line, and boxplots show the median, first and third quartiles, with whiskers indicating the 5th and 95th percentiles.
Statistical analysis was performed using two-sided Dunn’s post-hoc test with Benjamini-Hochberg correction for multiple comparisons (****/ ***/ **/ * indicates p < 0.0001/ 0.001/ 0.01/ 0.05). For detailed information on antibiotic and bacterial species, see Supplementary Table 1. For mode of action groups, refer to Table 1. Source data are provided as a Source Data file.

E. coli BW25113-ΔacrB = experiment: AcrAB-TolC efflux deficiency screen, relative MIC; assay type: cell-based, Escherichia coli; settings: ΔacrB vs wild-type
Description: Fig. 6 The impact of AcrAB-TolC activity on antibiotic susceptibility. E. coli strains with AcrAB-TolC depletion (BW25113-ΔacrB) and overexpression (BW25113: pUCacrAB) were treated with various antibiotics, and the level of resistance was determined as minimum inhibitory concentration (MIC) relative to a wild-type strain, presented on a logarithmic scale (log2). Each bar represents the mean resistance level (susceptibility, i.e., level of resistance < 0; and resistance, i.e., level of resistance > 0) to antibiotics induced by acrAB overexpression (blue bars; E. coli with a multicopy plasmid of the acrAB genes (pUCacrAB)) and acrB deletion (red bars; mutant E. coli with acrB gene deletion (ΔacrB)) compared to the wild-type. Data are presented as mean values of 3 biological replicates ± SD. […] Detailed information on antibiotic and bacterial strain abbreviations is provided in Supplementary Data 1. Source data are provided as a Source Data file. For information on mode of action groups, refer to Table 1.
For the efflux deficiency screen, the ΔacrB mutant of E. coli K12 BW25113[86] and its equivalent wild-type control strain with intact gene were utilized. In contrast, BW25113 carrying a multicopy acrAB plasmid (pUCacrAB)[87] and its control strain harboring an empty pUC118 plasmid were used to overexpress the acrAB efflux system. According to established protocols via P1 transduction, the suitable acrB deletion mutant (ΔacrB BW25113) was created, while the pUCacrAB plasmid was kindly provided by Kunihiko Nishino and Akihito Yamaguchi (Osaka University, Osaka, Japan). In a prior study, both strains were employed. Since the copy number of the plasmid carrying the efflux pump is controlled by native promoters, external induction is unnecessary.
Antibiotic susceptibilities of these strains were evaluated using a modified version of the standard broth dilution method. In 96-well microtiter plates containing fresh MHB medium, or supplemented MS medium in case of SCH79797, ten-step serial dilutions of an antibiotic from a stock solution were made (2 wells per antibiotic concentration per strain). The two wells contained only supplemented media without any antibiotics […]. Strains were incubated overnight at 37 °C with continuous agitation. Additionally, plasmid containing strains were grown in the presence of 100 µg/mL ampicillin. The culture was diluted to yield a cell suspension with 5 ×10^5 cells/mL and then inoculated into the wells of the microtiter plate. To determine the medium’s background OD value, the first column of the 96-well plate contained solely MHB without inoculum. Prior to the measurement, the plates were incubated at 37 °C with continuous shaking at 900 rpm with 3 mm throw. OD600 values were determined in a microplate reader after 18 hours of incubation (Biotek Synergy 2). The minimum inhibitory concentration (MIC) was determined as the lowest concentration of antibiotic at which the OD600 values were less than 0.05 after subtracting the background value. The log2 of the relative MIC was computed using the following equation:2 log2relativeMICpUCacrAB=MICpUCacrAB/MICpUC118 3 log2relativeMICΔacrB=MICΔacrB/MICwt

CN[C@@H]1[C@@H](O[C@H]2O[C@H](CO)[C@@H](N)[C@H](O)[C@H]2O)OC2C[C@@H](N)[C@@H](O[C@H]3[C@H](O)[C@@H](O)[C@H](N)C[C@@H]3N)OC2[C@@H]1O (some centres unmarked) [Apramycin]
2.107: Relative MIC (log10) ([1]; KP-SEN (Klebsiella pneumoniae ATCC 10031), evolved line 10 adapted to the named antibiotic)
0.9031: Relative MIC (log10) ([1]; KP-MDR (Klebsiella pneumoniae ATCC 700603), evolved line 1 adapted to the named antibiotic) | Relative MIC (log10) ([1]; KP-MDR (Klebsiella pneumoniae ATCC 700603), evolved line 8 adapted to the named antibiotic)
16: Relative MIC ([1]; KP-MDR (ATCC 700603), evolved line 2, MIC of evolved line / MIC of ancestor) | Relative MIC ([1]; KP-MDR (ATCC 700603), evolved line 3, MIC of evolved line / MIC of ancestor) | Relative MIC ([1]; KP-MDR (ATCC 700603), evolved line 5, MIC of evolved line / MIC of ancestor) | Relative MIC ([1]; KP-MDR (ATCC 700603), evolved line 9, MIC of evolved line / MIC of ancestor) | Relative MIC ([1]; Klebsiella pneumoniae ATCC 700603 (KP-MDR), evolved line 2) | Relative MIC ([1]; Klebsiella pneumoniae ATCC 700603 (KP-MDR), evolved line 3) | Relative MIC ([1]; Klebsiella pneumoniae ATCC 700603 (KP-MDR), evolved line 5) | Relative MIC ([1]; Klebsiella pneumoniae ATCC 700603 (KP-MDR), evolved line 9)
1: Relative MIC (log2) (E. coli BW25113-ΔacrB; replicate 1) | Relative MIC (log2) (E. coli BW25113-ΔacrB; replicate 2) | Relative MIC (log2) (E. coli BW25113-ΔacrB; replicate 3)
64: Relative MIC ([1]; KP-SEN (ATCC 10031), evolved line 2, MIC of evolved line / MIC of ancestor) | Relative MIC ([1]; KP-SEN (ATCC 10031), evolved line 5, MIC of evolved line / MIC of ancestor) | Relative MIC ([1]; KP-SEN (ATCC 10031), evolved line 6, MIC of evolved line / MIC of ancestor) | Relative MIC ([1]; KP-SEN (ATCC 10031), evolved line 8, MIC of evolved line / MIC of ancestor) | Relative MIC ([1]; KP-SEN (ATCC 10031), evolved line 9, MIC of evolved line / MIC of ancestor) | Relative MIC ([1]; Klebsiella pneumoniae ATCC 10031 (KP-SEN), evolved line 2) | Relative MIC ([1]; Klebsiella pneumoniae ATCC 10031 (KP-SEN), evolved line 5) | Relative MIC ([1]; Klebsiella pneumoniae ATCC 10031 (KP-SEN), evolved line 6) | Relative MIC ([1]; Klebsiella pneumoniae ATCC 10031 (KP-SEN), evolved line 8) | Relative MIC ([1]; Klebsiella pneumoniae ATCC 10031 (KP-SEN), evolved line 9)
1.204: Relative MIC (log10) ([1]; KP-MDR (Klebsiella pneumoniae ATCC 700603), evolved line 2 adapted to the named antibiotic) | Relative MIC (log10) ([1]; KP-MDR (Klebsiella pneumoniae ATCC 700603), evolved line 3 adapted to the named antibiotic) | Relative MIC (log10) ([1]; KP-MDR (Klebsiella pneumoniae ATCC 700603), evolved line 9 adapted to the named antibiotic)
4: Relative MIC ([1]; KP-MDR (ATCC 700603), evolved line 4, MIC of evolved line / MIC of ancestor) | Relative MIC ([1]; KP-MDR (ATCC 700603), evolved line 7, MIC of evolved line / MIC of ancestor) | Relative MIC ([1]; Klebsiella pneumoniae ATCC 700603 (KP-MDR), evolved line 4) | Relative MIC ([1]; Klebsiella pneumoniae ATCC 700603 (KP-MDR), evolved line 7)
8: Relative MIC ([1]; KP-MDR (ATCC 700603), evolved line 1, MIC of evolved line / MIC of ancestor) | Relative MIC ([1]; KP-MDR (ATCC 700603), evolved line 6, MIC of evolved line / MIC of ancestor) | Relative MIC ([1]; KP-MDR (ATCC 700603), evolved line 8, MIC of evolved line / MIC of ancestor) | Relative MIC ([1]; KP-MDR (ATCC 700603), evolved line 10, MIC of evolved line / MIC of ancestor) | Relative MIC ([1]; Klebsiella pneumoniae ATCC 700603 (KP-MDR), evolved line 1) | Relative MIC ([1]; Klebsiella pneumoniae ATCC 700603 (KP-MDR), evolved line 6) | Relative MIC ([1]; Klebsiella pneumoniae ATCC 700603 (KP-MDR), evolved line 8) | Relative MIC ([1]; Klebsiella pneumoniae ATCC 700603 (KP-MDR), evolved line 10)
1.806: Relative MIC (log10) ([1]; KP-SEN (Klebsiella pneumoniae ATCC 10031), evolved line 2 adapted to the named antibiotic) | Relative MIC (log10) ([1]; KP-SEN (Klebsiella pneumoniae ATCC 10031), evolved line 5 adapted to the named antibiotic) | Relative MIC (log10) ([1]; KP-SEN (Klebsiella pneumoniae ATCC 10031), evolved line 6 adapted to the named antibiotic) | Relative MIC (log10) ([1]; KP-SEN (Klebsiella pneumoniae ATCC 10031), evolved line 8 adapted to the named antibiotic)
128: Relative MIC ([1]; KP-SEN (ATCC 10031), evolved line 10, MIC of evolved line / MIC of ancestor) | Relative MIC ([1]; Klebsiella pneumoniae ATCC 10031 (KP-SEN), evolved line 10)
32: Relative MIC ([1]; KP-SEN (ATCC 10031), evolved line 3, MIC of evolved line / MIC of ancestor) | Relative MIC ([1]; Klebsiella pneumoniae ATCC 10031 (KP-SEN), evolved line 3)

— PMC11845477, “Exploring the principles behind antibiotics with limited resistance” (Nature Communications, 2025)
